Results as given in US11882827B2, “Agricultural mixtures comprising carboxamide compound” (BASF AGROCHEMICAL PRODUCTS B.V., priority 2013, dated 2024).
Where two headings read alike, the source gives them in different places.

What was measured:
Assay type in all cases: cell-based
Conditions in all cases: single active, 7 days after inoculation
Pyrenophora teres = assay: Microtest, activity against Pyrenophora teres
Rhizoctonia solani = assay: Microtest, activity against Rhizoctonia solani
Microdochium nivale = assay: Microtest, activity against Microdochium nivale
Septoria tritici = assay: Microtest, activity against leaf blotch on wheat caused by Septoria tritici
Pyricularia oryzae = test system: Pyricularia oryzae
Leptosphaeria nodorum = assay: Microtest, activity against wheat leaf spots caused by Leptosphaeria nodorum

For `Fc1ccc([C@]2(Cn3cncn3)O[C@H]2c2ccccc2Cl)cc1` [Epoxiconazol], the Observed efficacy (Pyrenophora teres; 0.016 ppm) was 0, the Observed efficacy (Rhizoctonia solani; 0.001 ppm) was 0 and the Observed efficacy (Rhizoctonia solani; 0.004 ppm) was 0. For the same compound, the Observed efficacy (Rhizoctonia solani; 0.016 ppm) was 24, the Observed efficacy (Microdochium nivale; 0.004 ppm) was 8 and the Observed efficacy (Microdochium nivale; 0.016 ppm) was 29. The Observed efficacy (Septoria tritici; 0.016 ppm) was 7, the Observed efficacy (Pyricularia oryzae; 0.063 ppm) was 1 and the Observed efficacy (Pyricularia oryzae; 0.25 ppm) was 28.
`COCC(=O)N(c1c(C)cccc1C)C(C)C(=O)OC` (centres unmarked) [Metalaxyl] gave an Observed efficacy (Septoria tritici; 1 ppm) of 5 and an Observed efficacy (Septoria tritici; 4 ppm) of 5.
Work on `COC(=O)N(OC)c1ccccc1COc1ccn(-c2ccc(Cl)cc2)n1` [Pyraclostrobin] yielded an Observed efficacy (Pyrenophora teres; 0.016 ppm) of 34 and an Observed efficacy (Leptosphaeria nodorum; 0.25 ppm) of 72.
With `CC1(C)CCC(=Cc2ccc(Cl)cc2)C1(O)Cn1cncn1` (centres unmarked) [Triticonazol] the Observed efficacy (Septoria tritici; 0.063 ppm) was 5.
`CN(C(=O)c1ccccc1)c1cccc(C(=O)Nc2c(Br)cc(C(F)(C(F)(F)F)C(F)(F)F)cc2C(F)(F)F)c1F` [carboxamide compound of formula I] gave an Observed efficacy (Pyrenophora teres; 63 ppm) of 20, an Observed efficacy (Septoria tritici; 63 ppm) of 11 and an Observed efficacy (Leptosphaeria nodorum; 4 ppm) of 1.
